According to publication PMC10094136, “Neurog1-Derived Peptides RMNE1 and DualPep-Shine Penetrate the Skin and Inhibit Melanin Synthesis by Regulating MITF Transcription” (International Journal of Molecular Sciences, 2023):
Where a SMILES comes first, the peptide text is derived from it.

How the values were obtained:
[1] = tested on: THP-1 cells; test: TNF-α secretion ELISA in PMA-differentiated THP-1 cells (immunogenicity); type: cell-based; settings: PMA-differentiated THP-1, up to 100 μM, 24 h
Experimental: (§1) (A) B16F10 and HaCaT cells were treated with the indicated concentration of DualPep-Shine for 72 h, and relative cell viability was measured using Cell Counting Kit 8 (CCK8) assay. Doxorubicin was used for positive control. (B) Phorbol 12-myristate 13-acetate (PMA)-differentiated THP-1 cells were treated with different concentrations of DualPep-Shine for 24 h. TNF-α from supernatants was measured using the enzyme-linked immunosorbent assay (ELISA). (C) DualPep-Shine was incubated with indicated temperature conditions for 45 days. B16F10 cells were treated with different concentrations for 72 h, and melanin contents were measured at OD 405 nm. The results are presented as mean ± SD, and statistical significance was analyzed with Student’s t-test (NS: not significant, *** p < 0.001).

[2] = tested on: HaCaT cells; test: Cell viability CCK-8 assay, HaCaT; type: cell-based; settings: up to highest concentration, 72 h (legend; method says 24 h), CCK8
Experimental: as §1
(§2) Cell viability was measured using a CCK-8 assay (Dojindo, Tokyo, Japan). HaCaT and B16F10 cells were cultured in a 96-well plate at a 6 × 10^3 cells/well and incubated in a complete medium at 37 °C with 5% CO2 overnight. Each cell type was treated with different concentrations of peptides for 24 h. After removing the medium, CCK-8 solution was added in a dark room at 37 °C. Absorbance was measured at 450 nm using a microplate reader.

[3] = Storage stability of peptide, read out as anti-melanin activity in B16F10 cells; type: physicochemical; settings: peptide stored at −20 °C, 25 °C and 37 °C for 45 days; then B16F10 72 h, melanin at OD 405 nm
Experimental: as §1
B16F10 cells (1 × 10^5) were seeded in a 24-well plate and incubated for 16 h. The cells were treated with α-MSH (Sigma-Aldrich, Darmstadt, Germany) and peptides for 72 h. The cells were incubated at 37 °C in 5% CO2. […] Then, melanin levels were determined by measuring the absorbance at 405 nm using a microplate reader. […] B16F10 cells were then treated with different concentrations of peptides, and melanin contents were measured to check the stability of DualPep-Shine.

[4] = tested on: B16F10 cells; test: Cell viability CCK-8 assay, B16F10; type: cell-based; settings: B16F10, up to highest concentration, 72 h (legend; method says 24 h), CCK8
Experimental: as §1, §2

[5] = tested on: B16F10 cells; test: Localization of penetrated peptide by confocal microscopy; type: cell-based; settings: B16F10, FITC-conjugated peptide, 2 h, Hoechst 33342 nucleus staining
Experimental: Figure 3 DualPep-Shine regulates the expression of melanogenic genes and inhibits the promoter activity of MITF-M. (A) B16F10 cells were treated with various concentrations of DualPep-Shine for 72 h. Melanin contents were determined at OD 405 nm. (B) DualPep-Shine was treated with α-MSH for 24 h, and whole-cell lysates were subjected to Western blotting. Indicated antibodies were used to analyze melanogenic proteins. (C) mRNA levels of MITF, Tyr, TRP1, and TRP2 were analyzed using quantitative polymerase chain reaction (qPCR) after treatment with DualPep-Shine for 12 h. The gene expression was normalized with β-actin. (D) FITC-conjugated DualPep-Shine was treated for 2 h on B16F10 cells, and its localization was visualized using confocal microscopy. Hoechst 33342 was used for nucleus staining. Bar = 10 μm. […] The results are presented as mean ± SD, and statistical significance was analyzed with Student’s t-test (** p < 0.01, *** p < 0.001).
B16F10 cells were seeded in a 24-well plate and treated with 2.5 μM of FITC conjugated TAT, RMNE1, or DualPep-Shine for 2 h. […] Penetrated peptides were evaluated via flow cytometry by measuring FITC levels. […] The cells were washed again with PBS five times, mounted on a slide glass using gel/mount solution (Biomeda, Foster City, CA, USA), and the penetrated peptides were visualized using a fluorescence microscope. […]

C[C@@H](O)[C@H](NC(=O)[C@H](CCCNC(=N)N)NC(=O)CNC(=O)[C@H](CCCNC(=N)N)NC(=O)[C@H](CCCNC(=N)N)NC(=O)[C@H](CCCNC(=N)N)NC(=O)[C@H](CCCNC(=N)N)NC(=O)[C@H](CCCNC(=N)N)NC(=O)[C@H](CCC(=O)O)NC(=O)[C@H](CCC(N)=O)NC(=O)[C@H](CCC(=O)O)NC(=O)[C@@H](N)CC(=O)O)C(=O)N[C@@H](CCCNC(=N)N)C(=O)O [DualPep-Shine] (H-DEQERRRRRGRTR-OH)
TNF-α secretion (immunogenicity) [1]: did not induce tumor necrosis factor α (TNF-α) secretion | Cell viability [2]: not affected | Anti-pigmentation activity after pre-incubation (stability) [3]: maintained | Cell viability [4]: not affected | Intracellular localization [5]: mainly localized in the nucleus
